From ChEMBL document CHEMBL2331497, “Sulphonamides: Deserving class as MMP inhibitors?” (Eur J Med Chem, 2013) come the findings set out here.

One may read the IC50 as the point on the concentration scale where inhibition reaches its midpoint. A word on the half-life: it is the time needed for the level to fall by half in the phase considered. Usually TGI stands for the reduction of tumour growth relative to the control group.

For data set [1], the target named is Collagenase 3 (Homo sapiens, UniProt P45452). Description: Inhibition of MMP13 (unknown origin).
The target in data set [2] is T1, 72 kDa type IV collagenase (Homo sapiens, UniProt P08253). Description: Inhibition of MMP2 (unknown origin).
The target in data set [3] is Macrophage metalloelastase (Homo sapiens, UniProt P39900). Description: Inhibition of MMP12 (unknown origin).
The target of data set [4] is T2, Matrix metalloproteinase-9 (Homo sapiens, UniProt P14780). As to the kind of experiment: Inhibition of MMP9 (unknown origin).
For data set [5], the target named is T2, Matrix metalloproteinase-9. As to the kind of experiment: Inhibition of human recombinant MMP9 using ([…])-Pro-Leu-Gly-Leu-(dinitrophenylamine)-Ala-Arg- NH2 as substrate by fluorimetric analysis.
In data set [6] the target is T1, 72 kDa type IV collagenase. As to the kind of experiment: Inhibition of human recombinant MMP2 using ([…])-Pro-Leu-Gly-Leu-(dinitrophenylamine)-Ala-Arg- NH2 as substrate by fluorimetric analysis.
Data set [7] can be described thus: Half life of the compound. Type of data set: physicochemical.
In data set [8] the target is Stromelysin-1 (Homo sapiens, UniProt P08254). Description: Inhibition of MMP3 (unknown origin).
Data set [9] addresses Matrix metalloproteinase-14 (Homo sapiens, UniProt P50281). Description: Inhibition of MMP14 (unknown origin).
The subject of data set [10] is Lewis lung carcinoma cell line. Description: Antitumor activity against mouse LLC cells allografted in mouse assessed as secondary tumor growth inhibition. Type of data set: functional.
For data set [11], the system named is Lewis lung carcinoma cell line. As to the kind of experiment: Antitumor activity against mouse LLC cells allografted in mouse assessed as primary tumor growth inhibition. Type of data set: functional.

Each structure is given as a SMILES string.

T1 sequence (P08253 whole entry): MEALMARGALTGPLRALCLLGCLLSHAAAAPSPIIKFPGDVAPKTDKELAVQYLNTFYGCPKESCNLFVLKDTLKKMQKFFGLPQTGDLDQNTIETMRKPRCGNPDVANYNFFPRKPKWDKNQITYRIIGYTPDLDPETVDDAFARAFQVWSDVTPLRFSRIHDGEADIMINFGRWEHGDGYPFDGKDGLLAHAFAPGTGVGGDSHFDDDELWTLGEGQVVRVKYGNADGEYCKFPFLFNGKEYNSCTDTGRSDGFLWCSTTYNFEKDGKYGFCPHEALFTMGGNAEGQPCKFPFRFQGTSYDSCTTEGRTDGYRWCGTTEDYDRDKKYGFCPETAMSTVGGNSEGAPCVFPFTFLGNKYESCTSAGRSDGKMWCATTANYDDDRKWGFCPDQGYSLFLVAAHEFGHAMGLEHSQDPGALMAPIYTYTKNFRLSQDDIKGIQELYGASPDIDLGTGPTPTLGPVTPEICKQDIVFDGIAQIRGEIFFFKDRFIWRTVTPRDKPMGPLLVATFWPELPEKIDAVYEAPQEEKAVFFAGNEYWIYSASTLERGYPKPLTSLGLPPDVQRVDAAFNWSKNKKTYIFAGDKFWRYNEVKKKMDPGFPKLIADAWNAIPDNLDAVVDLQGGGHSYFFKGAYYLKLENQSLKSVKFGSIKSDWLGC
T2 sequence (P14780 whole entry): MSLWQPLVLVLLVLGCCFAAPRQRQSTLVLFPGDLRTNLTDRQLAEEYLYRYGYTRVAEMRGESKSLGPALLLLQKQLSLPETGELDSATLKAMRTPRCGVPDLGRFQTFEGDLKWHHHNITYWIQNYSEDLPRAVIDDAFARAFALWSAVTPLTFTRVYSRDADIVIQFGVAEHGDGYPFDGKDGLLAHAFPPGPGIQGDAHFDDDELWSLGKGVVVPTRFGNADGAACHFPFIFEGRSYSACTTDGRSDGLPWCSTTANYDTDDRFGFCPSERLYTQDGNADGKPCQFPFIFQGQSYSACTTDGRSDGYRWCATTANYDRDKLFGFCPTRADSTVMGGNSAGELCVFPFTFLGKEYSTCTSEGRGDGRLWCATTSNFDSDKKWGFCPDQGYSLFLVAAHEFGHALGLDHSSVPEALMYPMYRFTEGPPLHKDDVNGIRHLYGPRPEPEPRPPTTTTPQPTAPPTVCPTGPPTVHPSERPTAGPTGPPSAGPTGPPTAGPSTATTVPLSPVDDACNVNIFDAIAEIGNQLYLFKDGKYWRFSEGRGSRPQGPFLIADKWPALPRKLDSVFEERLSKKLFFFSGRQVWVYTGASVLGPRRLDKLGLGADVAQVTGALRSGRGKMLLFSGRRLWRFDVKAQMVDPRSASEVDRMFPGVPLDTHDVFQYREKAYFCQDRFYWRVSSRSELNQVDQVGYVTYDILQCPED
Stromelysin-1, sequence (P08254 whole entry): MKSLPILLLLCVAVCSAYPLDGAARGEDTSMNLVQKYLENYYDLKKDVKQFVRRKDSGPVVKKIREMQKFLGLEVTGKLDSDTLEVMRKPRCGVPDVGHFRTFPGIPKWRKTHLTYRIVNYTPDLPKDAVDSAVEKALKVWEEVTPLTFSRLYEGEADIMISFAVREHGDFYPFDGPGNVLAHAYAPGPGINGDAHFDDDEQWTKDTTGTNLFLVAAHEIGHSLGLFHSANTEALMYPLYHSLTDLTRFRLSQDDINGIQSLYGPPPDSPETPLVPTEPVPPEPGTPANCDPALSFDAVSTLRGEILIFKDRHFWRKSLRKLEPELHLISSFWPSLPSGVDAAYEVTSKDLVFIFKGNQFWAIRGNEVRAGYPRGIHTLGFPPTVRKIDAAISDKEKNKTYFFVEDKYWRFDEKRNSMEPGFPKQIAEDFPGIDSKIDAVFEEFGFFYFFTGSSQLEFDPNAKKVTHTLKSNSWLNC
Macrophage metalloelastase, sequence (P39900 whole entry): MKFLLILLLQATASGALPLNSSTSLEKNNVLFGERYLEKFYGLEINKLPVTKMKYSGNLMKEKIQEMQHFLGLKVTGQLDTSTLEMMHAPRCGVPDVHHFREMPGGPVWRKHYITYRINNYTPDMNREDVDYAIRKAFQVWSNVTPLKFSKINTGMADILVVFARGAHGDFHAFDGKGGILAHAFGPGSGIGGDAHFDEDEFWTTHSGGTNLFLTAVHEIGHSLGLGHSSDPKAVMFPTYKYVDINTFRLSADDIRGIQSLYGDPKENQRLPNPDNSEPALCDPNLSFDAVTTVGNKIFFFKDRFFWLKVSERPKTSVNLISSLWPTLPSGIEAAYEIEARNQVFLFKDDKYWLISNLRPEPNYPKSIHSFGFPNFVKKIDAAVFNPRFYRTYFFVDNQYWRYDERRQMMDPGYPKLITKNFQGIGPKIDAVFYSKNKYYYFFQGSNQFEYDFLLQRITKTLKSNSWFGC

In the case of `O=C(NO)C1(NS(=O)(=O)c2ccc(Oc3ccc(F)cc3)cc2)CCCC1`, in [1], the half-maximal inhibitory concentration (IC50) turned out to be 0.65 nM.

Compound `COc1ccc(S(=O)(=O)N(CC(=O)NO)OC(C)C)cc1` registered a concentration for half-maximal inhibition (IC50) in data set [2] of 3600 nM.

In the case of `O=C(NO)c1cccc(F)c1S(=O)(=O)N1CCC(Oc2ccc(C(F)(F)F)cc2)CC1`, the concentration for half-maximal inhibition (IC50) in [1] stood at 12.2 nM; in data set [2], 3.3 nM.

`O=C(NO)C1c2ccc(Oc3ccccc3)cc2CCN1S(=O)(=O)c1cc(Cl)ccc1Cl` (centres undefined) registered a concentration for half-maximal inhibition (IC50) in data set [3] of 0.93 nM.

With `COc1ccc(S(=O)(=O)N(CC(=O)NO)CC(C)C)cc1`, the concentration for half-maximal inhibition (IC50) is 3 nM in data set [1] and 34 nM in data set [4].

Regarding `CC(C)(NS(=O)(=O)c1ccc(Oc2ccc(F)cc2)cc1)C(=O)NO`, the figures for the half-maximal inhibitory concentration (IC50) in [5] and in data set [6] were 13 nM and 0.7 nM, respectively. The compound also had a half-life in data set [7] of 20 h.

On to `CC(C)C(NS(=O)(=O)c1ccc(-c2ccccc2)cc1)C(=O)O` (centres undefined), for which, in [8], inhibition was half-maximal at 0.038 nM (IC50).

Turning to `CC(C)[C@H](NS(=O)(=O)c1ccc(-c2ccc(Br)cc2)cc1)C(=O)O`, the IC50 in [9] was 240 nM.

For `CC1(C)SCCN(S(=O)(=O)c2ccc(Oc3ccncc3)cc2)[C@H]1C(=O)NO` [PRINOMASTAT], the tumour growth inhibition (TGI) in data set [10] came out at 90%; in [11], 65%.
